Assay results from patent US9932479B2, “Dyes and compositions, and processes for using same in analysis of protein aggregation and other applications” (Enzo Biochem, Inc., priority 2009, dated 2018).

Assays:
[1] = Fluorescence excitation and emission spectra of dye freely dissolved in buffer; assay type: physicochemical; conditions: 50 mM Tris-HCl, pH 7.8, 10 μM dye, room temperature
Description: (§1) Fluorescent readings were carried out in 50 mM Tris-HCl, pH 7.8 using 10 μM dye. […] Fluorescence excitation and emission spectra were collected on a Cary Eclipse fluorescence spectrophotometer (Varian, Australia). Fluorescence spectra were measured with excitation and emission slit widths set to 5 nm, and at a constant PMT voltage. Spectroscopic measurements were performed in standard quartz cells. All measurements were made at the respective excitation maxima of each dye. All measurements were carried out at room temperature.

β-lactoglobulin (BLG) = molecular target: T1, β-lactoglobulin (BLG) (Bos taurus, UniProt P02754); assay: Thermal shift assay of BLG aggregation; assay type: binding; conditions: BLG 4 or 16 mg/mL, heating 28° C. to 90° C.
T1 sequence (P02754 17-178): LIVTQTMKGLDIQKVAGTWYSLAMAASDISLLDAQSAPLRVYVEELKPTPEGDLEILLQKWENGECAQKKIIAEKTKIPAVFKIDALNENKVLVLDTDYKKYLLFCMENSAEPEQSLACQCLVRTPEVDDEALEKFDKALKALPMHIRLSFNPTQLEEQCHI
Description: A solution containing 4 or 16 mg/mL of β-lactoglobulin (BLG) and 2×SYPRO® Orange dye (Molecular Probes, supplied as 5000× with unknown concentration) or 4 μM TOL3 or 4 μM S25 was prepared using 1×PBS, pH 7.4 as the dilution buffer. This solution was then loaded into LightCycler® capillaries (20 μL, Roche Diagnostics GmbH). These capillaries were then mounted on the sample holder of a LightCycler® 480 Real-Time PCR System (Roche), programmed to heat from 28° C. to 90° C. at 3° C./min, followed by cooling down to 28° C. at the same rate. The thermal shift curves were achieved by plotting fluorescence intensity vs. temperature. After the heating cycle, protein aggregates were visually apparent.

[2] = molecular target: T2, recombinant human alpha-synuclein (ASN) aggregate (Homo sapiens, UniProt P37840); assay: Fluorescence excitation and emission spectra of dye in the presence of aggregated alpha-synuclein; assay type: binding; conditions: 1 μM aggregated ASN, 50 mM Tris-HCl, pH 7.8, 10 μM dye
T2 construct: purchased Sigma-Aldrich
Description: as §1

[3] = tested on: goat-anti-mouse IgG aggregate; assay: Fluorescence enhancement (aggregate/native IgG) in the presence of excipients; assay type: binding; conditions: for Fluorescence enhancement (aggregate/native IgG): 2.8 μM IgG, 0.625 μM dye
Description: IgG aggregate was prepared by adjusting 5.83 mg/ml of purified goat-anti-mouse IgG (H&L, Pel Freez, Rogers, Ark.) to pH 2.7 using HCl and incubating at 22° C. for 24 hours. The assay was performed using 2.8 μM IgG, either native or aggregated, and a dye concentration of 0.625 μM. The protein and dye were mixed together for 15 minutes at 22° C., then this was further incubated in the presence of the excipients shown in the table. The fluorescence intensity of S-25, Tol3 and Y2150 were determined with a FLUOstar OPTIMA plate reader (BMG LABTECH) at excitation wavelength of 550 nm and emission wavelength of 610 nm; while the fluorescence intensity for Thioflavin-T was determined using a SpectraMAX GeminiXS (Molecular device, with Softmax Pro 7.0) using an excitation wavelength of 435 nm and emission wavelength of 495 nm. The fluorescence enhancement (aggregate/native IgG) is shown.

Goat anti-mouse IgG = assay: High-throughput protein formulation optimization: effect of excipients on IgG aggregation at 50° C., S-25/Tol3 readout; assay type: biochemical; conditions: 100 mM Trehalose; 50° C. for 6 hours
Description: (A). Goat anti-mouse IgG was diluted in sodium acetate, pH 4.5, then mixed with the excipients shown in FIG. 10 A giving a final concentration of 400 mM sodium acetate, 18 μM IgG and the excipient concentration shown in the Table 2. This mixture was heated to 50° C. for 6 hours. At this time the protein solution was diluted two-fold to give a final concentration of 50 mM Histidine buffer, originally pH 7, 2.5 μM S-25, 2.5 μM Tol3 and 9 μM IgG. After 30 minutes of incubation on the shaker, the fluorescence intensity was recorded on the plate reader (FLUOstar Optima). The fluorescence intensity from each individual excipient was then compared with that without any excipient (Value set as 1.0) as shown on the top of the corresponding excipient bar in FIG. 12 A.
(B). In the control plate, the IgG was added to the plate, at the same volume and concentration given above (Example 17A) in 400 mM Sodium Acetate. This mixture was heated to 50° C. for 6 hours, as described above. After 6 hours, the excipient was added followed by S-25 and Tol3 to give all the final concentrations as shown in Example 17A. Similar to the sample plate, the fluorescence intensity from individual excipients was also compared with that from water without any excipient (Values set as 1.0) to obtain the relative fluorescent intensity as shown on the top of the corresponding excipient bar in FIG. 12B.
(C). […]

CN(C)c1ccc(/C=C/c2cc[n+](CCCCCC[n+]3ccc(/C=C/c4ccc(N(C)C)cc4)cc3)cc2)cc1.CS(=O)(=O)[O-].CS(=O)(=O)[O-] [Dye S25]
Dye freely dissolved in buffer: Emission wavelength [1]: 613 nm
Dye freely dissolved in buffer: Excitation wavelength [1]: 485 nm
Detection of BLG thermal shift (melting) peak (β-lactoglobulin (BLG)): able to detect BLG thermal shift peaks
In the presence of aggregate: Emission wavelength [2]: 607 nm
In the presence of aggregate: Excitation wavelength [2]: 516 nm
Fluorescence enhancement (aggregate/native IgG) ([3]; Ammonium Sulfate, 10 mM): 15.4 fold
Fluorescence enhancement (aggregate/native IgG) ([3]; Ammonium Sulfate, 100 mM): 14.6 fold
Fluorescence enhancement (aggregate/native IgG) ([3]; Ammonium Sulfate, 300 mM): 13.3 fold
Fluorescence enhancement (aggregate/native IgG) ([3]; Arginine, 200 mM): 14.8 fold
Fluorescence enhancement (aggregate/native IgG) ([3]; Arginine, 500 mM): 13.5 fold
Fluorescence enhancement (aggregate/native IgG) ([3]; Ascoric Acid, 1 mM): 13.9 fold
Fluorescence enhancement (aggregate/native IgG), Average ([3]; Average over all excipient conditions): 19.3 fold
Fluorescence enhancement (aggregate/native IgG) ([3]; Calcium Chloride, 10 mM): 9.7 fold
Fluorescence enhancement (aggregate/native IgG) ([3]; Calcium Chloride, 50 mM): 9.6 fold
Fluorescence enhancement (aggregate/native IgG) ([3]; Calcium Chloride, 200 mM): 6.7 fold
Fluorescence enhancement (aggregate/native IgG) ([3]; DTT, 1 mM): 13.2 fold
Fluorescence enhancement (aggregate/native IgG) ([3]; Glycine, 0.5%): 14.1 fold
Fluorescence enhancement (aggregate/native IgG) ([3]; Glycine, 2%): 15.1 fold
Fluorescence enhancement (aggregate/native IgG) ([3]; Lactose, 100 mM): 23.0 fold
Fluorescence enhancement (aggregate/native IgG) ([3]; Lactose, 300 mM): 38.9 fold
Fluorescence enhancement (aggregate/native IgG) ([3]; Mannitol, 100 mM): 16.7 fold
Fluorescence enhancement (aggregate/native IgG) ([3]; Mannitol, 300 mM): 15.2 fold
Fluorescence enhancement (aggregate/native IgG) ([3]; Mannitol, 600 mM): 20.9 fold
Fluorescence enhancement (aggregate/native IgG) ([3]; Sodium Chloride, 10 mM): 14.0 fold
Fluorescence enhancement (aggregate/native IgG) ([3]; Sodium Chloride, 100 mM): 13.6 fold
Fluorescence enhancement (aggregate/native IgG) ([3]; Sodium Chloride, 1000 mM): 11.7 fold
Fluorescence enhancement (aggregate/native IgG) ([3]; Sorbitol, 100 mM): 16.4 fold
Fluorescence enhancement (aggregate/native IgG) ([3]; Sorbitol, 300 mM): 21.0 fold
Fluorescence enhancement (aggregate/native IgG) ([3]; Sorbitol, 600 mM): 25.4 fold
Fluorescence enhancement (aggregate/native IgG) ([3]; Trehalose, 100 mM): 17.8 fold
Fluorescence enhancement (aggregate/native IgG) ([3]; Trehalose, 300 mM): 32.1 fold
Fluorescence enhancement (aggregate/native IgG) ([3]; Trehalose, 600 mM): 30.1 fold
Fluorescence enhancement (aggregate/native IgG) ([3]; Tween 20, 0.01%): 70.8 fold
Fluorescence enhancement (aggregate/native IgG) ([3]; Tween 20, 0.2%): 26.7 fold
Fluorescence enhancement (aggregate/native IgG) ([3]; X100, 0.01%): 19.2 fold
Fluorescence enhancement (aggregate/native IgG) ([3]; X100, 0.2%): 7.3 fold
Fluorescence enhancement (aggregate/native IgG) ([3]; X100, 1%): 2.9 fold

OC[C@H]1O[C@H](O[C@H]2O[C@H](CO)[C@@H](O)[C@H](O)[C@H]2O)[C@H](O)[C@@H](O)[C@@H]1O [Trehalose]
Effect on aggregation of IgG (fluorescence ratio sample plate / control plate) (Goat anti-mouse IgG): inhibit or slow down aggregation of IgG
